The IC50 is the concentration needed to halve the response being measured. In general, melting point refers to the temperature of the solid-liquid transition.

The text below walks through data of paper PMC8587047, “Synthesis and Biological Evaluation of Harmirins, Novel Harmine–Coumarin Hybrids as Potential Anticancer Agents” (Molecules, 2021).

In one data set the test system is HepG2. Description: MTT cytotoxicity assay, HepG2. The format is cell-based. As to conditions: Homo sapiens, HepG2; MTT, 72 h, mean ± SD; read-out: IC50 HepG2. The source says: (§1) We selected four different cancer cell lines for antiproliferative screening in vitro, which we believed would provide sufficient data on the anticancer potential of the prepared harmirins (hepatocellular carcinoma—HepG2, colorectal adenocarcinoma, Dukes’ type C—SW620, colorectal carcinoma—HCT116, and breast adenocarcinoma—MCF-7). Additionally, we included one non-cancer cell line (embryonic kidney—HEK293T) to evaluate harmirins’ selectivity. The commonly used anticancer drug 5-FU and harmine were used as positive controls. Pre-screening was performed using 50 µM of the tested compound. Only compounds that led to more than 50% reduction in mitochondrial metabolic activity at 50 µM concentration were selected for further analysis. The selectivity index (SI) for each harmirin was calculated as a fractional ratio between the IC50 values for HEK293T and the cancer cell line MCF-7 or HCT116 since these two cell lines were the most susceptible to harmirins.
(§2) The experiments were carried out on five human cell lines purchased from American Type Culture Collection (ATCC, PO BOX 1549, manassas, VA 20108, USA): HepG2 (hepatocellular carcinoma; ATCC® HB-8065™), SW620 (colorectal adenocarcinoma; ATCC® CCL-227™), HCT116 (colorectal carcinoma ATCC® CCL-247™), MCF-7 (breast adenocarcinoma, ATCC® HTB-22™), and HEK293T (embryonic kidney cells; ATCC® CRL-3216™). All cell lines were cultured as monolayers and maintained in Dulbecco’s modified Eagle medium (DMEM) (Capricorn Scientific, USA), supplemented with 10% fetal bovine serum (FBS) (Capricorn Scientific, USA), 100 U/mL penicillin, and 100 µg/mL streptomycin (Capricorn Scientific, USA) in a humidified atmosphere with 5% CO2 at 37 °C. Cells were seeded in 96-well plates (Corning, Durham, NC, USA) at 5000–7000 cells per well (depending on the cell doubling time of a specific cell line) in 0.1 mL media and cultured for 24 h. The next day, the medium was aspirated, and cells were treated for 72 h. Only the compounds that led to more than a 50% reduction in mitochondrial metabolic activity at a concentration of 50 µM were selected for further analysis. The following concentrations of selected compounds were used: 25, 10, 5, and 1 µM. Working dilutions were freshly prepared on the day of the testing. A fresh growth medium was added to untreated control cells, which were defined as 100% viable. DMSO (0.13%) in DMEM was considered a negative control. 5-Fluorouracil (5-FU) and harmine were used as positive controls. At the end of treatment, media was removed, and cells were incubated for 1 h with 0.5 mg/mL MTT (Abcam, Cambridge, MA, USA) dissolved in serum-deprived DMEM. The absorbance was directly proportional to cell viability. The MTT-containing media was then removed, and 0.1 mL isopropanol was added per well to lyse cells and dissolve formazan. The optical density was measured at 570 nm using a microplate reader (VICTOR3, PerkinElmer). Each test point was performed in triplicate. The IC50 values (concentration required to decrease viability by 50%) were calculated by using nonlinear regression on the sigmoidal dose–response plots and are expressed as mean ± SD.
(In general: Formazan colour is commonly taken as a measure of viable cells.)

A further data set concerns SW620. The experiment in a line: MTT cytotoxicity assay, SW620. It counts as cell-based. As to conditions: Homo sapiens, SW-620; MTT, 72 h, mean ± SD; read-out: IC50 SW620.
Description: as §1, §2

A further data set concerns HCT116. The experiment in a line: MTT cytotoxicity assay, HCT116. The format is cell-based, human. The conditions noted are these: for IC50: Homo sapiens, HCT-116, MTT, 72 h, mean ± SD, read-out: IC50 HCT116; for SI (HCT116): ratio IC50 HEK293T / IC50 HCT116.
Description: as §1, §2

A further data set relates to MCF-7. The experiment in a line: MTT cytotoxicity assay, MCF-7. It counts as cell-based, human. The conditions noted are these: for IC50: Homo sapiens, MCF7, MTT, 72 h, mean ± SD, read-out: IC50 MCF-7; for SI (MCF-7): ratio IC50 HEK293T / IC50 MCF-7.
Description: as §1, §2

Another data set relates to HEK293T. The experiment in a line: MTT cytotoxicity assay, HEK293T (non-cancer). It counts as cell-based, human. The conditions noted are these: for IC50: Homo sapiens, HEK-293T, MTT, 72 h, mean ± SD, non-cancer cell line, read-out: IC50 Hek293T.
Description: as §1, §2

For the compound `Cc1nccc2c1[nH]c1ccc(OCc3cn(-c4cc(=O)oc5ccccc45)nn3)cc12` [11a, 4-(4-(((1-Methyl-9H-pyrido[3,4-b]indol-6-yl)oxy)methyl)-1H-1,2,3-triazol-1-yl)-2H-chromen-2-one], the melting point was 235.5 to 238 °C (dec.). Besides, the IC50 in the data set on HepG2 came out at 6.4 ± 0.2 µM. In addition, the IC50 with SW620 amounted to 8.4 ± 0.3 µM. In the data set with HCT116, the IC50 amounted to 3.3 ± 0.4 µM and the “SI (HCT116)” value is given as 2. Besides, in the data set with MCF-7, the IC50 was 2.2 ± 0.2 µM and the “SI (MCF-7)” value is 3. In addition, the “activity against MCF-7, fold stronger than 5-FU” value with MCF-7 (compared with 5-FU IC50) is 9–13 fold. The “activity against MCF-7, fold higher than harmine” value in the data set on MCF-7 (compared with harmine IC50) is recorded as 5–7 fold. In addition, the IC50 in the data set with HEK293T was 6.4 ± 0.2 µM.
For the compound `O=c1[nH]cc(F)c(=O)[nH]1` [5-FU, 5-fluorouracil, reference compound], the IC50 in the data set on HepG2 was 5.5 ± 0.6 µM; in the data set with SW620 it was 9.4 ± 0.3 µM; in the data set with HCT116 it was 5.2 ± 2.8 µM; in the data set with MCF-7, 23.9 ± 5.7 µM; with HEK293T, 8.1 ± 0.8 µM. Moreover, in the data set on HCT116, the “SI (HCT116)” value was determined as 1.6. Further, the “SI (MCF-7)” value in the data set on MCF-7 stood at 0.3.
Turning to `O=c1cc(OCc2cn(Cc3nccc4c3[nH]c3ccccc34)nn2)c2cc(F)ccc2o1` [4d, 4-((1-((9H-Pyrido[3,4-b]indol-1-yl)methyl)-1H-1,2,3-triazol-4-yl)methoxy)-6-fluoro-2H-chromen-2-one], the melting point is 239.5 to 241 °C (dec.). The IC50 in the data set with HepG2 is over 50 µM. Moreover, in the data set with SW620, the IC50 is over 50 µM. Moreover, in the data set with HCT116, the IC50 stood at 33.1 ± 7.7 µM and the “SI (HCT116)” value amounted to 1.4. Further, in the data set on MCF-7, the IC50 is over 50 µM and the “SI (MCF-7)” value is given as under 0.9. For the same compound, in the data set with HEK293T, the half-inhibitory concentration (IC50) stood at 45.8 ± 0.2 µM.
Consider `Cc1nccc2c1[nH]c1ccc(OCc3cn(-c4cc(=O)oc5ccc(Cl)cc45)nn3)cc12` [11c, 6-Chloro-4-(4-(((1-methyl-9H-pyrido[3,4-b]indol-6-yl)oxy)methyl)-1H-1,2,3-triazol-1-yl)-2H-chromen-2-one], for which the melting point was 220 to 225 °C (dec.). Besides, in the data set on HepG2, the IC50 was found to be 14 ± 1.2 µM. For the same compound, the IC50 in the data set with SW620 came to 30.3 ± 3.9 µM. Moreover, in the data set with HCT116, the IC50 is 15.5 ± 4.4 µM and the “SI (HCT116)” value stood at 0.8. In addition, in the data set on MCF-7, the IC50 came to 13.3 ± 1.5 µM and the “SI (MCF-7)” value is recorded as 0.9. Besides, in the data set on HEK293T, the IC50 is 12.2 ± 1 µM.
Take `Cc1ccc2oc(=O)cc(OCc3cn(Cc4cc5c([nH]c6ccccc65)c(C)n4)nn3)c2c1` [5b, 6-Methyl-4-((1-((1-methyl-9H-pyrido[3,4-b]indol-3-yl)methyl)-1H-1,2,3-triazol-4-yl)methoxy)-2H-chromen-2-one]: the melting point was 263 to 267.5 °C (dec.). The IC50 in the data set on HepG2 is 16.8 ± 1.4 µM. Besides, the IC50 in the data set on SW620 was over 50 µM. In the data set on HCT116, the IC50 is 3.2 ± 0.5 µM and the “SI (HCT116)” value is 8.6. In the data set with MCF-7, the IC50 was over 50 µM and the “SI (MCF-7)” value is under 0.6. In the data set with HEK293T, the IC50 was determined as 27.3 ± 2.1 µM. Besides, in the data set on HEK293T (cancer cell line not specified (MCF-7 or HCT116)), the “SIs (selectivity towards cancer cells in comparison to HEK293T)” value was over 7.2.
For `Cc1ccc2oc(=O)cc(OCc3cn(Cc4nccc5c4[nH]c4ccccc45)nn3)c2c1` [4b, 4-((1-((9H-Pyrido[3,4-b]indol-1-yl)methyl)-1H-1,2,3-triazol-4-yl)methoxy)-6-methyl-2H-chromen-2-one], the melting point was 246.5 to 251 °C (dec.). Moreover, the IC50 with HepG2 was 27.3 ± 1.2 µM. Also, the IC50 in the data set with SW620 is over 50 µM. Further, in the data set with HCT116, the IC50 is over 50 µM and the “SI (HCT116)” value is reported as under 0.5. Further, in the data set with MCF-7, the IC50 amounted to 35.7 ± 1 µM and the “SI (MCF-7)” value is 0.7. Also, the IC50 with HEK293T worked out at 26 ± 1 µM.
With `Cc1ccc2oc(=O)cc(-n3cc(COc4ccc5[nH]c6c(C)nccc6c5c4)nn3)c2c1` [11b, 6-Methyl-4-(4-(((1-methyl-9H-pyrido[3,4-b]indol-6-yl)oxy)methyl)-1H-1,2,3-triazol-1-yl)-2H-chromen-2-one], the melting point was 235 to 242 °C (dec.). Further, in the data set on HepG2, the IC50 is 13.6 ± 0.8 µM. In the data set on SW620, the IC50 was over 50 µM. Also, in the data set on HCT116, the IC50 was over 50 µM and the “SI (HCT116)” value is under 0.4. Also, in the data set with MCF-7, the IC50 was determined as 10.4 ± 0.8 µM and the “SI (MCF-7)” value is recorded as 2. Besides, the half-maximal inhibitory concentration (IC50) with HEK293T came out at 21.3 ± 4.1 µM.
As for `Cc1nccc2c1[nH]c1cc(OCc3cn(-c4cc(=O)oc5ccccc45)nn3)ccc12` [12a, 4-(4-(((1-Methyl-9H-pyrido[3,4-b]indol-7-yl)oxy)methyl)-1H-1,2,3-triazol-1-yl)-2H-chromen-2-one], the IC50 with HepG2 was 19.8 ± 1.1 µM; in the data set on SW620, 30 ± 3.5 µM; in the data set on HCT116 it was 10 ± 3.4 µM; with MCF-7, 21.6 ± 3.7 µM; in the data set with HEK293T it was 14.7 ± 0.8 µM. The “SI (HCT116)” value in the data set with HCT116 was 1.5. Besides, in the data set with MCF-7, the “SI (MCF-7)” value was found to be 0.7.
For the compound `O=c1cc(OCc2cn(Cc3nccc4c3[nH]c3ccccc34)nn2)c2ccccc2o1` [4a, 4-((1-((9H-Pyrido[3,4-b]indol-1-yl)methyl)-1H-1,2,3-triazol-4-yl)methoxy)-2H-chromen-2-one], the melting point is 260.5 to 264 °C (dec.). Moreover, in the data set on HepG2, the IC50 was found to be 29.5 ± 3.5 µM. In addition, the IC50 in the data set with SW620 was over 50 µM. In addition, in the data set on HCT116, the IC50 is over 50 µM and the “SI (HCT116)” value is on record as over 1. Moreover, in the data set on MCF-7, the IC50 is over 50 µM and the “SI (MCF-7)” value is on record as over 1. The IC50 in the data set with HEK293T was over 50 µM.
Turning to `COc1ccc2c3ccnc(C)c3n(Cc3cn(-c4cc(=O)oc5ccc(C)cc45)nn3)c2c1` [13b, 4-(4-((7-Methoxy-1-methyl-9H-pyrido[3,4-b]indol-9-yl)methyl)-1H-1,2,3-triazol-1-yl)-6-methyl-2H-chromen-2-one], the melting point is 253 to 255 °C (dec.). The IC50 in the data set on HepG2 was over 50 µM. For the same compound, in the data set with SW620, the IC50 is over 50 µM. In addition, in the data set with HCT116, the IC50 is over 50 µM and the “SI (HCT116)” value is reported as over 1. In addition, in the data set with MCF-7, the IC50 is over 50 µM and the “SI (MCF-7)” value is reported as over 1. For the same compound, the IC50 in the data set on HEK293T is over 50 µM.
As for `COc1ccc2c3ccnc(C)c3n(Cc3cn(-c4cc(=O)oc5ccc(Cl)cc45)nn3)c2c1` [13c, 6-Chloro-4-(4-((7-methoxy-1-methyl-9H-pyrido[3,4-b]indol-9-yl)methyl)-1H-1,2,3-triazol-1-yl)-2H-chromen-2-one], the melting point was 233 to 239.5 °C (dec.). Also, the IC50 with HepG2 was over 50 µM. Further, the IC50 in the data set on SW620 is over 50 µM. Besides, in the data set with HCT116, the IC50 is 34.4 ± 3.3 µM and the “SI (HCT116)” value is over 1.5. Further, in the data set with MCF-7, the IC50 was 32 ± 1.9 µM and the “SI (MCF-7)” value was over 1.6. The IC50 in the data set with HEK293T was over 50 µM.
As to `Cc1nccc2c1[nH]c1cc(OCc3cn(-c4cc(=O)oc5ccc(F)cc45)nn3)ccc12` [12d, 6-Fluoro-4-(4-(((1-methyl-9H-pyrido[3,4-b]indol-7-yl)oxy)methyl)-1H-1,2,3-triazol-1-yl)-2H-chromen-2-one], the melting point is 249 to 251 °C (dec.). The IC50 in the data set on HepG2 was over 50 µM. Also, in the data set with SW620, the IC50 was over 50 µM. For the same compound, in the data set on HCT116, the IC50 is over 50 µM and the “SI (HCT116)” value was over 1. Also, in the data set with MCF-7, the IC50 is over 50 µM and the “SI (MCF-7)” value was over 1. Moreover, in the data set with HEK293T, the IC50 is over 50 µM.
